According to US7045146B2, “Templating of solid particles by polymer multilayers” (Max-Planck-Gesellschaft zur Forderung der Wissenschaften …, priority 2000, dated 2006):

Key:
Type in all cases: physicochemical
[1] = Release experiments: removal of the microcrystal core by ethanol, fluorescence of supernatant; settings: control without polyelectrolyte multilayer
Method: Direct proof that a polymer multilayer cage encapsulated the microcrystals was obtained by removing the templated core. The release behaviour of the pyrene and fluoresceine diacetate molecules, from dissolution of the core templates, through the polymer capsule wall can be investigated by using fluorescence spectroscopy. Following centrifugation of the coated microcrystal suspensions that were exposed to ethanol, the supernatant was assessed for either pyrene or fluoresceine at regular time intervals.
12 mL of solvent (ethanol or ethanol/water mixtures) were dispensed into 15 mL tubes. 0.1 mL of the coated microcrystal suspension of Example 3 was then quickly added to each tube and after defined times (2, 5, 10 min etc.) the suspension was centrifuged at 3000 g for 5 min. A portion of the supernatant was removed and tested for the presence of PYR of FDA by fluorescence. For PYR, the fluorescence emission intensity of the supernatant was measured directly by using an excitation wavelength (λex) of 350 nm and monitoring the emission (λem) at 373 nm. FDA was first hydrolyzed into fluorescein either by treatment with esterase or dilute base prior to fluorescence measurement (λex=492 nm, λem=513 nm). As control experiments, the release characteristics of uncoated particles was also studied as outlined above.

[2] = Microelectrophoresis: zeta-potential of coated organic microcrystals
Method: The layer-by-layer assembly of polyelectrolytes onto FDA or PYR microcrystals was carried out as follows: 50 mg of finely milled core particles (FDA or PYR) were first thoroughly mixed with 12 mL of 0.2–0.4 wt % of the dispersing agent (ionic surfactant, lipid or charged polymer). Crystalline fluorescein diacetate or pyrene can be milled to fine particles using e.g. a mortar and pestle. However, also advanced ball milling procedures can be used.
The crystals were suspended by their immediate sonication for 5 min. The suspension was allowed to stand for 30 min, thus allowing the larger crystals to sediment, or gently centrifuged. The turbid white supernatant was then extracted, centrifuged and washed several times, and finally resuspended in water.
The resulting microcrystal particles were then layer-by-layer coated with PSS and PAH.^18 When positively charged surfactants or DPPC were used as the first layer, 1 mL of PSS solution (5 mg mL^−1, containing 0.5 M NaCl) was added first. PAH solution (1 mL of 5 mg mL^−1, containing 0.5 M NaCl) was added first when PSS or SDS were adsorbed onto the microcrystals. After an adsorption time of 15 min for PAH or PSS adsorption, the suspension was centrifuged at 3000 g for 5 min. The supernatant was then removed and three cycles of water washing and redispersing were applied to remove the excess unadsorbed polyelectrolyte in solution. Subsequent polyelectrolyte layers, bearing an opposite charge to that already adsorbed on the particle, were deposited in identical fashion to produce multilayer-coated microcrystals. In some cases, the fluorescently labeled polyelectrolyte, PAH-FITC, was applied (as a 2 mg mL^−1 solution containing 0.5 M NaCl) to form a fluorescent layer on the microcrystal surface.
The microelectrophoretic mobility of coated organic microcrystals was measured with a malvern Zetasizer 4 by taking the average of 5 measurements at the stationary level. The mobilities (μ) were converted to the electrophoretic potentials (ζ) using the Smoluchowski relation ζ=μη/ε, where η and ε are the viscosity and permittivity of the solution, respectively.^25 All measurements were performed on microcrystals re-dispersed in air-equilibrated pure water (pH ˜5.6).

Solubility in water = assay: Solubility in water
[3] = SDS-dispersed crystals, layer No. 2, coating PAH
[4] = SDS-dispersed crystals, layer No. 3, coating PSS
[5] = SDS-dispersed crystals, layer No. 4, coating PAH
[6] = SDS-dispersed crystals, layer No. 5, coating PSS
[7] = SDS-dispersed crystals, layer No. 6, coating PAH-FTTC
[8] = crystals, layer No. 1, coating SDS detergent, pure water pH ~5.6

solubility in water (Solubility in water)	ζ-potential ([2]; SDS dispersed crystals (FIG. 2a)) [mV]	ζ-potential ([2]; microcrystals dispersed with DPPC (FIG. 2b))	ζ-potential ([2]; microcrystals exposed to PSS (FIG. 2b)) [mV]	SMILES	time for removal of core upon addition of ethanol ([1]; DDDAB-dispersed (surfactant-coated) microcrystals) [min]	time for removal of core upon addition of ethanol ([1]; PSS-dispersed (PSS-coated) microcrystals) [min]	Zeta-potential [2, 3]	Zeta-potential [2, 4] [mV]	Zeta-potential [2, 5]	Zeta-potential [2, 6] [mV]	Zeta-potential [2, 7]	ζ-potential ([2]; crystals exposed to DDDAB (FIG. 2a))	Zeta-potential [2, 8] [mV]
				c1cc2ccc3cccc4ccc(c1)c2c34 [Pyrene]	≤ 30	≤ 30	+59 mV	−46.5	+54.3 mV	−37.2	+47.3 mV	+50 mV	−68.5
very low solubility in water	−50	+20 mV	−40	CC(=O)Oc1ccc2c(c1)Oc1cc(OC(C)=O)ccc1C21OC(=O)c2ccccc21 [Fluorescein diacetate, fluorescein diacetate]			+42.9 mV	−37.7	+51.5 mV	−42.2	+48.2 mV		-85
